Data on 17 compounds can be found in patent US9409908B2 (priority 2012, dated 2016).

In assay [1] the target is purified human Factor XIa (Homo sapiens (Human), UniProt P03951). Put plainly: biochemical. Type of assay: biochemical.
In assay [2] the target is purified human plasma kallikrein (Homo sapiens (Human), UniProt P03952). The experiment in a line: biochemical. The assay is classed as biochemical.
Where [3] appears, read: TFA salt, read-out: Factor XIa Ki.
Setting [4] is: TFA salt, read-out: Plasma Kallikrein Ki.

Counter-ions that a name gives are not always drawn. Like-named read-outs stand apart in the source and are kept apart here.

Chain of purified human Factor XIa (P03951 whole entry, looked up): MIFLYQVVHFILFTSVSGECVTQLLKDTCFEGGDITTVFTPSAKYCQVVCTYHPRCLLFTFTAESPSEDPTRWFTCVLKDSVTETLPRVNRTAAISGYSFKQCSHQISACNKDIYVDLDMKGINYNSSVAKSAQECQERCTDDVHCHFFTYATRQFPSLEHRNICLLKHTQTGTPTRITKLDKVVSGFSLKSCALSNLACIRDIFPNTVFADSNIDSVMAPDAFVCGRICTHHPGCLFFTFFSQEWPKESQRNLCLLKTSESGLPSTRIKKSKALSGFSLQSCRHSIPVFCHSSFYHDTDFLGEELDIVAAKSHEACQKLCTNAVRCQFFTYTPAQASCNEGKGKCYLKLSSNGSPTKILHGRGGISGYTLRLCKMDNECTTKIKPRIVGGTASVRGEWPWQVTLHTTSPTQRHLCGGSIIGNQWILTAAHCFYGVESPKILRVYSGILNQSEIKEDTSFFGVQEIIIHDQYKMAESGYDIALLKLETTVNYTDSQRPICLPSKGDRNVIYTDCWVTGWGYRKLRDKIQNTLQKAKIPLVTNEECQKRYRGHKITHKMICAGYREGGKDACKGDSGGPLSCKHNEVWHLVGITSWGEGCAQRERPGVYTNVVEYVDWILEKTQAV
Chain of purified human Factor XIa (P03951 whole entry partner, looked up): as the sequence (P03951 whole entry, looked up) above
Chain of purified human plasma kallikrein (P03952 whole entry, looked up): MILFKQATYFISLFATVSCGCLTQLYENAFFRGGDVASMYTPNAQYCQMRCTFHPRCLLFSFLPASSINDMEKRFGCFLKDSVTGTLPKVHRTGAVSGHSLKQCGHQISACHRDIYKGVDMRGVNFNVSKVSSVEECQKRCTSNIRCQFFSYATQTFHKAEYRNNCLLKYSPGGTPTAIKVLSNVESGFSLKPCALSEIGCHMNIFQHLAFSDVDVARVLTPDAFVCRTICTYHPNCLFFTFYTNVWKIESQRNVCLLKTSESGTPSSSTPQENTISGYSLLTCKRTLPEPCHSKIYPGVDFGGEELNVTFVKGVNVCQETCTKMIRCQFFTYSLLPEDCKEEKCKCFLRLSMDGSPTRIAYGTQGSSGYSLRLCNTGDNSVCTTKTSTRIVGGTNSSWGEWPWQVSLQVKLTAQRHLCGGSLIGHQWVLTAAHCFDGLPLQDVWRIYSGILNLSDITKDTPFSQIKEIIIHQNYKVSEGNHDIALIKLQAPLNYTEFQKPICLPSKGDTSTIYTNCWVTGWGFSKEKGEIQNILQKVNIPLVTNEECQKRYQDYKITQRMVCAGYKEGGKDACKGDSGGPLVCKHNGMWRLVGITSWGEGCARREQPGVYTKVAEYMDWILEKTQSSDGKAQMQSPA
Chain of purified human plasma kallikrein (P03952 whole entry partner, looked up): as the sequence (P03952 whole entry, looked up) above

By Ki is commonly meant a measure of affinity in units of concentration, obtained from inhibition or displacement. Turning to `COC(=O)Nc1ccc2c(c1)NC(=O)C(C)(O)CCC[C@H](N1CCC(c3c(F)ccc(Cl)c3F)=CC1=O)c1cc-2ccn1` (single isomer, unassigned) [Example 124, TFA salt], the Ki in assay [1] was found to be 346 nM; in assay [2] (Plasma Kallikrein Ki) it was 483 nM.

In the case of `COC(=O)Nc1ccc2c(c1)NC(=O)[C@H](C)CCC[C@H](N1CCC(C3CCCC(C)C3)=CC1=O)c1cc-2ccn1` (single isomer, unassigned) [Example 153, TFA salt], the figures for the Ki in assay [1] (setting [3]) and in assay [2] (setting [4]) were 20 nM and 21.2 nM, respectively.

Turning to `COC(=O)Nc1ccc2c(c1)NC(=O)[C@H](C)CCC[C@H](N1CCC(C3CCCC(C)C3)=CC1=O)c1cc-2ccn1` (single isomer, unassigned) [Example 218, TFA salt], the Ki is 38.2 nM in assay [1] (setting [3]) and 378 nM in assay [2] (setting [4]).

As to `COC(=O)Nc1ccc2c(c1)NC(=O)[C@H](C)CCC[C@H](N1CCC(C3CCCC(C)C3)=CC1=O)c1cc-2ccn1` (single isomer, unassigned) [Example 225, TFA salt], the Ki came out at 26.1 nM in assay [1] (setting [3]) and 95.5 nM in assay [2] (setting [4]).

For `COC(=O)Nc1ccc2c(c1)NC(=O)[C@H](C)CCC[C@H](N1CCC(C3CCCC(C)C3)=CC1=O)c1cc-2ccn1` (single isomer, unassigned) [Example 226, TFA salt], the Ki came to 24.6 nM in assay [1] (setting [3]) and 165 nM in assay [2] (setting [4]).

As for `COC(=O)Nc1ccc2c(c1)C(=O)N[C@H](C)CCC[C@H](N1CCC(c3c(F)ccc(Cl)c3F)=CC1=O)c1cc-2ccn1` (single isomer, unassigned; diastereomer b) [Example 194, TFA salt], the figures for the Ki in assay [1] and in assay [2] (Plasma Kallikrein Ki) were greater than 422 nM and 310 nM, respectively.

Consider `COC(=O)Nc1ccc2c(c1)NC(=O)[C@H](C)CCC[C@H](N1CC(C)C(c3c(F)ccc(Cl)c3F)=CC1=O)c1cc-2ccn1` (single isomer, unassigned; isomer 1) [Example 177], for which the figures for the Ki in assay [1] and in assay [2] (Plasma Kallikrein Ki) were 0.8 nM and 4.02 nM, respectively.

With `COC(=O)Nc1ccc2c(c1)NC(=O)[C@H](C)CCC[C@H](N1CCC(c3c(OC)ccc(Cl)c3F)=CC1=O)c1cc-2ccn1` [Example 1, Methyl N-[(10R,14S)-14-[4-(3-chloro-2-fluoro-6-methoxyphenyl)-6-oxo-1,2,3,6-tetrahydropyridin-1-yl]-10-methyl-9-oxo-8,16-diazatricyclo[13.3.1.0^2,7]nonadeca-1(19),2,4,6,15,17-hexaen-5-yl]carbamate, TFA salt], the Ki in assay [1] (read-out: Factor XIa Ki) amounted to 0.87 nM; in assay [2] (read-out: Plasma Kallikrein Ki) it was 10 nM.

In the case of `COC(=O)Nc1ccc2c(c1)NC(=O)[C@H](C)CCC[C@H](N1CCC(c3c(C)ccc(Cl)c3F)=CC1=O)c1cc-2ccn1` [Example 2, Methyl N-[(10R,14S)-14-[4-(3-chloro-2-fluoro-6-methylphenyl)-6-oxo-1,2,3,6-tetrahydropyridin-1-yl]-10-methyl-9-oxo-8,16-diazatricyclo[13.3.1.0^2,7]nonadeca-1(19),2,4,6,15,17-hexaen-5-yl]carbamate, TFA salt], the Ki came out at 0.23 nM in assay [1] (read-out: Factor XIa Ki) and 5 nM in assay [2] (read-out: Plasma Kallikrein Ki).

Regarding `COC(=O)Nc1ccc2c(c1)NC(=O)[C@H](C)CCC[C@H](N1CCC(c3c(C#N)ccc(Cl)c3F)=CC1=O)c1cc-2ccn1` [Example 3, Methyl N-[(10R,14S)-14-[4-(3-chloro-6-cyano-2-fluorophenyl)-6-oxo-1,2,3,6-tetrahydropyridin-1-yl]-10-methyl-9-oxo-8,16-diazatricyclo[13.3.1.0^2,7]nonadeca-1(19),2,4,6,15,17-hexaen-5-yl]carbamate, TFA salt], the Ki in assay [1] (read-out: Factor XIa Ki) amounted to 0.03 nM; in assay [2] (read-out: Plasma Kallikrein Ki), 1 nM.

For the compound `COC(=O)Nc1ccc2c(c1)NC(=O)[C@H](C)CCC[C@H](N1CCC(c3c(F)cccc3C#N)=CC1=O)c1cc-2ccn1` [Example 4, Methyl N-[(10R,14S)-14-[4-(2-cyano-6-fluorophenyl)-6-oxo-1,2,3,6-tetrahydropyridin-1-yl]-10-methyl-9-oxo-8,16-diazatricyclo[13.3.1.0^2,7]nonadeca-1(19),2,4,6,15,17-hexaen-5-yl]carbamate, TFA salt], the inhibition constant Ki in assay [1] (read-out: Factor XIa Ki) came to 2.64 nM; in assay [2] (read-out: Plasma Kallikrein Ki), 1 nM.

Consider `COC(=O)Nc1ccc2c(c1)NC(=O)[C@H](C)CCC[C@H](N1CCC(c3nccc(Cl)c3F)=CC1=O)c1cc-2cc(OC)n1` [Example 5, Methyl N-[(10R,14S)-14-[4-(4-chloro-3-fluoropyridin-2-yl)-6-oxo-1,2,3,6-tetrahydropyridin-1-yl]-17-methoxy-10-methyl-9-oxo-8,16-diazatricyclo[13.3.1.0^2,7]nonadeca-1(18),2,4,6,15(19),16-hexaen-5-yl]carbamate, TFA salt], for which the results for the Ki in assay [1] (read-out: Factor XIa Ki) and in assay [2] (read-out: Plasma Kallikrein Ki) were 2 nM and 3 nM, respectively.

As for `COC(=O)Nc1ccc2c(c1)NC(=O)[C@H](C)CCC[C@H](N1CCC(c3nccc(Cl)c3OC)=CC1=O)c1cc-2cc(OC)n1` [Example 6, Methyl N-[(10R,14S)-14-[4-(4-chloro-3-methoxypyridin-2-yl)-6-oxo-1,2,3,6-tetrahydropyridin-1-yl]-17-methoxy-10-methyl-9-oxo-8,16-diazatricyclo[13.3.1.0^2,7]nonadeca-1(18),2,4,6,15(19),16-hexaen-5-yl]carbamate, TFA salt], the inhibition constant Ki is 158 nM in assay [1] (read-out: Factor XIa Ki) and 303 nM in assay [2] (read-out: Plasma Kallikrein Ki).

As for `COC(=O)Nc1ccc2c(c1)NC(=O)[C@H](C)CCC[C@H](N1CCC(c3c(C#N)ccc(C#N)c3F)=CC1=O)c1cc-2cc(OC)n1` [Example 7, Methyl N-[(10R,14S)-14-[4-(3,6-dicyano-2-fluorophenyl)-6-oxo-1,2,3,6-tetrahydropyridin-1-yl]-17-methoxy-10-methyl-9-oxo-8,16-diazatricyclo[13.3.1.0^2,7]nonadeca-1(18),2,4,6,15(19),16-hexaen-5-yl]carbamate], the values for the Ki in assay [1] (read-out: Factor XIa Ki) and in assay [2] (read-out: Plasma Kallikrein Ki) were 5.42 nM and 10 nM, respectively.

`COC(=O)Nc1ccc2c(c1)NC(=O)[C@H](C)CCC[C@H](N1CCC(c3c(C#N)ccc4c(N)n[nH]c34)=CC1=O)c1cc-2cc(OC)n1` [Example 8, Methyl N-[(10R,14S)-14-[4-(3-amino-6-cyano-1H-indazol-7-yl)-6-oxo-1,2,3,6-tetrahydropyridin-1-yl]-17-methoxy-10-methyl-9-oxo-8,16-diazatricyclo[13.3.1.0^2,7]nonadeca-1(18),2,4,6,15(19),16-hexaen-5-yl]carbamate, TFA salt]: the Ki is greater than 457 nM in assay [1] (read-out: Factor XIa Ki) and 173 nM in assay [2] (read-out: Plasma Kallikrein Ki).

On to `COC(=O)Nc1ccc2c(c1)NC(=O)[C@H](C)CCC[C@H](N1CCC(c3c(C#N)ccc4c(N)noc34)=CC1=O)c1cc-2cc(OC)n1` [Example 9, Methyl N-[(10R,14S)-14-[4-(3-amino-6-cyano-1,2-benzoxazol-7-yl)-6-oxo-1,2,3,6-tetrahydropyridin-1-yl]-17-methoxy-10-methyl-9-oxo-8,16-diazatricyclo[13.3.1.0^2,7]nonadeca-1(18),2,4,6,15(19),16-hexaen-5-yl]carbamate, TFA salt], for which the values for the Ki in assay [1] (read-out: Factor XIa Ki) and in assay [2] (read-out: Plasma Kallikrein Ki) were 33.2 nM and 46 nM, respectively.

Consider `COC(=O)Nc1ccc2c(c1)NC(=O)[C@H](C)CCC[C@H](N1CCC(c3nccc(Cl)c3F)=CC1=O)c1cc-2ccn1` [Example 10, Methyl N-[(10R,14S)-14-[4-(4-chloro-3-fluoropyridin-2-yl)-6-oxo-1,2,3,6-tetrahydropyridin-1-yl]-10-methyl-9-oxo-8,16-diazatricyclo[13.3.1.0^2,7]nonadeca-1(18),2,4,6,15(19),16-hexaen-5-yl]carbamate, TFA salt], for which the Ki in assay [1] (read-out: Factor XIa Ki) was determined as 0.92 nM; in assay [2] (read-out: Plasma Kallikrein Ki), 1 nM.
